Results as given in patent US8258311B2, “Human protein tyrosine phosphatase inhibitors and methods of use” (Aerpio Therapeutics Inc., priority 2006, dated 2012).

Experiments:
HPTPβ = HPTPβ (Homo sapiens, UniProt P23467); test: HPTPβ inhibition (IC50); type: biochemical
PTP1B = target: T1, PTP1B (Homo sapiens, UniProt P18031); test: PTP1B inhibition (IC50); type: biochemical
T1 sequence (P18031 1-435): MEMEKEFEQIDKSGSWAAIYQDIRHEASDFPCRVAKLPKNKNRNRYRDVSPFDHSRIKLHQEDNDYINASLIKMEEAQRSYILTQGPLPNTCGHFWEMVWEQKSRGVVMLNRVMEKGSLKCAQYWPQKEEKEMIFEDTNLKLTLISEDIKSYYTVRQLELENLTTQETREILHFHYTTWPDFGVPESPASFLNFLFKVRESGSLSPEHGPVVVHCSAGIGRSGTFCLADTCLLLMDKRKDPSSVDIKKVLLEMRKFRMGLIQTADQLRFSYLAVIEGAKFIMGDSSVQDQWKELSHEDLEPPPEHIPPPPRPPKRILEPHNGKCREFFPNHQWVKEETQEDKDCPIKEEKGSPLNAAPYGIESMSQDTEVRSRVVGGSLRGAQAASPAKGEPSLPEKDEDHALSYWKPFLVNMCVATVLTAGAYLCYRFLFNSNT

Chain of HPTPβ (P23467 23-1997): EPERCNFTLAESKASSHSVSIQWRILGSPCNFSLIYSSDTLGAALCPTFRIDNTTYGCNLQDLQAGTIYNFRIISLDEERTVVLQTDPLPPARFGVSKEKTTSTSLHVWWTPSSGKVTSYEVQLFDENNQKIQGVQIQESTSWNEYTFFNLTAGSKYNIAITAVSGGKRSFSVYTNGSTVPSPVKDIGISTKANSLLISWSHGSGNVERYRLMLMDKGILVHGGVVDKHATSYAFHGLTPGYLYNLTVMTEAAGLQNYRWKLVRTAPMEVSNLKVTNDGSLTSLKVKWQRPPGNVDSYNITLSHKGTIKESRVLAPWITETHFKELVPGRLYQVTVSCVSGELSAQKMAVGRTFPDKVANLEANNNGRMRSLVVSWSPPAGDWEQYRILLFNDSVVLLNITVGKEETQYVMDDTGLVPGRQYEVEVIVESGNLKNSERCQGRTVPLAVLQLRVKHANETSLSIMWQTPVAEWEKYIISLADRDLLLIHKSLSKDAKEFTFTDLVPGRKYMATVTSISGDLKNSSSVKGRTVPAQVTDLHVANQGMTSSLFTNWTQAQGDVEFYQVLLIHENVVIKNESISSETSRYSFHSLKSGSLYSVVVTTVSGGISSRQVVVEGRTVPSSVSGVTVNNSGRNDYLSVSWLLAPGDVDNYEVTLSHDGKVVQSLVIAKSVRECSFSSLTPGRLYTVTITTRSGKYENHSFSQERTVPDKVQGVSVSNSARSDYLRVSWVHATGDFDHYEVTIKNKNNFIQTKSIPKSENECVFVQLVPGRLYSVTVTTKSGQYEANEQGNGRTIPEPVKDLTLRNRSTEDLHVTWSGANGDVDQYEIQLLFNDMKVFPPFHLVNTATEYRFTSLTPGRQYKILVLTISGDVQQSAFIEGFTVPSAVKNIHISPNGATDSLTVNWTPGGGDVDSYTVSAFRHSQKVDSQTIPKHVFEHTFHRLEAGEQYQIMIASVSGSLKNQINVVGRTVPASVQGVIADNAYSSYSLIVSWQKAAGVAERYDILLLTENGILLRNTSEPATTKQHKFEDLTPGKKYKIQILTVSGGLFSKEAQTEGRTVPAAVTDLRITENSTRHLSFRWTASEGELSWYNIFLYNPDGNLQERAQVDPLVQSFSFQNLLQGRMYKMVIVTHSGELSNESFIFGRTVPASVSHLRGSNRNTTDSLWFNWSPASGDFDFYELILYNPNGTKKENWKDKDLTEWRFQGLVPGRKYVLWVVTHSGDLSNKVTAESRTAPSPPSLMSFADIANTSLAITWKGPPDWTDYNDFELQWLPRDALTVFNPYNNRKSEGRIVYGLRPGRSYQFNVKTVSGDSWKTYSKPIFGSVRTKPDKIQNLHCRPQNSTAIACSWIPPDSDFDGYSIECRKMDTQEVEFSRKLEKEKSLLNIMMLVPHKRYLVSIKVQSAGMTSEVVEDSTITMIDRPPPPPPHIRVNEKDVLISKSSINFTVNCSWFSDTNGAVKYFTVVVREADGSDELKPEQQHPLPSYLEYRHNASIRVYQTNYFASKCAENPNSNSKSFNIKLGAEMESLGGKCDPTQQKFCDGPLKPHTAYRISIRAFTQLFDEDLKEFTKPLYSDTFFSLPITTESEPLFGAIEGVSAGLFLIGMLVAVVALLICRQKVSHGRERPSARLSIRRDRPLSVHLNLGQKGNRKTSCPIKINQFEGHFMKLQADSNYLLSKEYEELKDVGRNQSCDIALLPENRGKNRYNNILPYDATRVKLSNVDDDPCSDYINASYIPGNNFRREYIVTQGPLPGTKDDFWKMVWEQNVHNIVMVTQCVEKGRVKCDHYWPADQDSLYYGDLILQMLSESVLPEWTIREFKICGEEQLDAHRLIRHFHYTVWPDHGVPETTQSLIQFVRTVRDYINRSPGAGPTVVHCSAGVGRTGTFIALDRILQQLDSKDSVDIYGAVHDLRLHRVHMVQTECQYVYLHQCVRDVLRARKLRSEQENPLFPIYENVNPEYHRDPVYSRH

COC(=O)N[C@@H](Cc1ccccc1)C(=O)N[C@@H](Cc1ccc(NS(=O)(=O)O)cc1)c1nc(C2CC2)cs1 [4-{(S)-2-(4-Cyclopropylthiazol-2-yl)-2-[(S)-2-(methoxy-carbonylamino)-3-phenylpropanamido]ethyl}phenylsulfamic acid]
IC50 (HPTPβ): 0.01 nM
IC50 (PTP1B): 300 nM

CCc1nc([C@H](Cc2ccc(NS(=O)(=O)O)cc2)NC(=O)[C@H](Cc2ccccc2)NC(=O)OC)sc1C [4-{(S)-2-(4-Ethyl-5-methylthiazol-2-yl)-2-[(S)-2-(methoxy-carbonylamino)-3-phenyl-propanamido]ethyl}phenylsulfamic acid]
IC50 (HPTPβ): 0.1 nM
IC50 (PTP1B): 1120 nM

CCc1csc([C@H](Cc2ccc(NS(=O)(=O)O)cc2)NC(=O)[C@@H](NC(=O)OC)C(C)C)n1 [4-{(S)-2-(4-Ethylthiazol-2-yl)-2-[(S)-2-(methoxycarbonylamino)-3-methylbutanamido]-ethyl}phenylsulfamic acid]
IC50 (HPTPβ): 3 nM
IC50 (PTP1B): 1030 nM

CCc1csc([C@H](Cc2ccc(NS(=O)(=O)O)cc2)NC(=O)[C@H](Cc2ccccc2)NC(=O)OC)n1 [4-{(S)-2-(4-Ethylthiazol-2-yl)-2-[(S)-2-(methoxycarbonylamino)-3-phenylpropanamido]ethyl}phenylsulfamic acid]
IC50 (HPTPβ): 0.162 nM
IC50 (PTP1B): 490 nM

CCc1csc([C@H](Cc2ccc(NS(=O)(=O)O)cc2)NC(=O)[C@H](CC(C)C)NC(=O)OC)n1 [4-{(S)-2-(4-Ethylthiazol-2-yl)-2-[(S)-2-(methoxycarbonylamino)-4-methylpentanamido]ethyl}phenylsulfamic acid]
IC50 (HPTPβ): 0.3 nM
IC50 (PTP1B): 70 nM

COC(=O)N[C@@H](Cc1ccccc1)C(=O)N[C@@H](Cc1ccc(NS(=O)(=O)O)cc1)c1nc(C(C)(C)C)cs1 [4-{(S)-2-(4-tert-Butylthiazol-2-yl)-2-[(S)-2-(methoxycarbonylamino)-3-phenylpropanamido]ethyl}phenylsulfamic acid]
IC50 (HPTPβ): 0.2 nM
IC50 (PTP1B): 708 nM

COC(=O)N[C@@H](Cc1ccccc1)C(=O)N[C@@H](Cc1ccc(NS(=O)(=O)O)cc1)c1nc2c(s1)CCC2 [4-{(S)-2-(5,6-Dihydro-4H-cyclopenta[d]thiazol-2-yl)-2-[(S)-2-(methoxycarbonylamino)-3-phenylpropanamido]ethyl}phenylsulfamic acid]
IC50 (HPTPβ): 1 nM
IC50 (PTP1B): 180 nM

CC(=O)N[C@@H](Cc1ccccc1)C(=O)N[C@@H](Cc1ccc(NS(=O)(=O)O)cc1)c1nc(-c2ccsc2)cs1 [4-{(S)-2-((S)-2-Acetamido-3-phenylpropanamido)-2-[4-(thiophen-3-yl)thiazol-2-yl]ethyl}phenylsulfamic acid]
IC50 (HPTPβ): 0.24 nM
IC50 (PTP1B): 1160 nM

COC(=O)N[C@@H](Cc1ccccc1)C(=O)N[C@@H](Cc1ccc(NS(=O)(=O)O)cc1)c1csc(CS(=O)(=O)C(C)(C)C)n1 [4-{(S)-2-[2-(tert-Butylsulfonylmethyl)thiazol-4-yl]-2-[(S)-2-(methoxycarbonylamino)-3-phenylpropanamido]ethyl}phenylsulfamic acid]
IC50 (HPTPβ): 2 nM
IC50 (PTP1B): 1210 nM

CCc1csc([C@H](Cc2ccc(NS(=O)(=O)O)cc2)NC(=O)[C@@H](Cc2ccccc2)NC(=O)OC(C)(C)C)n1 [4-{(S)-2-[(R)-2-(tert-butoxycarbonylamino)-3-phenylpropanamido]-2-(4-ethylthiazol-2-yl)ethyl}phenylsulfamic acid]
IC50 (HPTPβ): 4 nM
IC50 (PTP1B): 7120 nM

CCOC(=O)N[C@@H](Cc1ccccc1)C(=O)N[C@@H](Cc1ccc(NS(=O)(=O)O)cc1)c1nc(CC)cs1 [4-{(S)-2-[(S)-2-(Ethoxycarbonylamino)-3-phenylpropanamido]-2-(4-ethylthiazol-2-yl)ethyl}phenylsulfamic acid]
IC50 (HPTPβ): 0.14 nM
IC50 (PTP1B): 680 nM

COC(=O)N[C@@H](Cc1ccccc1)C(=O)N[C@@H](Cc1ccc(NS(=O)(=O)O)cc1)c1nc(CCC(F)(F)F)cs1 [4-{(S)-2-[(S)-2-(Methoxycarbonylamino)-3-phenylpropanamido)-2-[4-(3,3,3-trifluoropropyl)thiazol-2-yl]ethyl}phenylsulfamic acid]
IC50 (HPTPβ): 0.08 nM
IC50 (PTP1B): 120 nM

CCc1nc([C@H](Cc2ccc(NS(=O)(=O)O)cc2)NC(=O)[C@H](Cc2ccccc2)NC(=O)OC)cs1 [4-{(S)-2-[(S)-2-(Methoxycarbonylamino)-3-phenylpropanamido]-2-(2-ethylthiazol-4-yl)ethyl}phenylsulfamic acid]
IC50 (HPTPβ): 0.1 nM
IC50 (PTP1B): 1010 nM

COC(=O)N[C@@H](Cc1ccccc1)C(=O)N[C@@H](Cc1ccc(NS(=O)(=O)O)cc1)c1csc(C)n1 [4-{(S)-2-[(S)-2-(Methoxycarbonylamino)-3-phenylpropanamido]-2-(2-methylthiazol-4-yl)ethyl}phenylsulfamic acid]
IC50 (HPTPβ): 1 nM
IC50 (PTP1B): 1160 nM

COC(=O)N[C@@H](Cc1ccccc1)C(=O)N[C@@H](Cc1ccc(NS(=O)(=O)O)cc1)c1nc2c(s1)CCCC2 [4-{(S)-2-[(S)-2-(Methoxycarbonylamino)-3-phenylpropanamido]-2-(4,5,6,7-tetrahydrobenzo[d]thiazol-2-yl)ethyl}phenylsulfamic acid]
IC50 (HPTPβ): 0.4 nM
IC50 (PTP1B): 89 nM

COC(=O)N[C@@H](Cc1ccccc1)C(=O)N[C@@H](Cc1ccc(NS(=O)(=O)O)cc1)c1nc(C)cs1 [4-{(S)-2-[(S)-2-(Methoxycarbonylamino)-3-phenylpropanamido]-2-(4-methylthiazol-2-yl)ethyl}phenylsulfamic acid]
IC50 (HPTPβ): 1 nM
IC50 (PTP1B): 480 nM

CCCc1csc([C@H](Cc2ccc(NS(=O)(=O)O)cc2)NC(=O)[C@H](Cc2ccccc2)NC(=O)OC)n1 [4-{(S)-2-[(S)-2-(Methoxycarbonylamino)-3-phenylpropanamido]-2-(4-propylthiazol-2-yl)ethyl}phenylsulfamic acid]
IC50 (HPTPβ): 0.1 nM
IC50 (PTP1B): 1030 nM

COC(=O)N[C@@H](Cc1ccccc1)C(=O)N[C@@H](Cc1ccc(NS(=O)(=O)O)cc1)c1ncc(-c2ccccc2)s1 [4-{(S)-2-[(S)-2-(Methoxycarbonylamino)-3-phenylpropanamido]-2-(5-phenylthiazol-2-yl)ethyl}phenylsulfamic acid]
IC50 (HPTPβ): 0.3 nM
IC50 (PTP1B): 810 nM

COC(=O)N[C@@H](Cc1ccccc1)C(=O)N[C@@H](Cc1ccc(NS(=O)(=O)O)cc1)c1nccs1 [4-{(S)-2-[(S)-2-(Methoxycarbonylamino)-3-phenylpropanamido]-2-(thiazol-2-yl)ethyl}phenylsulfamic acid]
IC50 (HPTPβ): 6 nM
IC50 (PTP1B): 1020 nM

COC(=O)N[C@@H](Cc1ccccc1)C(=O)N[C@@H](Cc1ccc(NS(=O)(=O)O)cc1)c1csc(-c2cnccn2)n1 [4-{(S)-2-[(S)-2-(Methoxycarbonylamino)-3-phenylpropanamido]-2-[2-(pyrazin-2-yl)thiazol-4-yl]ethyl}phenylsulfamic acid]
IC50 (HPTPβ): 3 nM
IC50 (PTP1B): 295 nM

COC(=O)N[C@@H](Cc1ccccc1)C(=O)N[C@@H](Cc1ccc(NS(=O)(=O)O)cc1)c1nc(CC(F)(F)F)cs1 [4-{(S)-2-[(S)-2-(Methoxycarbonylamino)-3-phenylpropanamido]-2-[4-(2,2,2-trifluoroethyl)thiazol-2-yl]ethyl}phenylsulfamic acid]
IC50 (HPTPβ): 0.3 nM
IC50 (PTP1B): 1630 nM

COCc1csc([C@H](Cc2ccc(NS(=O)(=O)O)cc2)NC(=O)[C@H](Cc2ccccc2)NC(=O)OC)n1 [4-{(S)-2-[(S)-2-(Methoxycarbonylamino)-3-phenylpropanamido]-2-[4-(methoxymethyl)thiazol-2-yl]ethyl}phenylsulfamic acid]
IC50 (HPTPβ): 1 nM
IC50 (PTP1B): 640 nM
